Experiments:
COLO 205 [1] = test: Cytotoxicity against human COLO205 cells assessed as age growth inhibition at 50 uM after 48 hrs by sulforhodamine B assay; type: functional; details: COLO 205, 48 h, read-out: GI
COLO 205 [2] = test: Cytotoxicity against human COLO205 cells assessed as age growth inhibition at 100 uM after 48 hrs by sulforhodamine B assay; type: functional; details: COLO 205, 48 h, read-out: GI
IGROV-1 [3] = test: Cytotoxicity against human IGROV1 cells assessed as age growth inhibition at 10 uM after 48 hrs by sulforhodamine B assay; type: functional; details: IGROV-1, 48 h, read-out: GI
IGROV-1 [4] = test: Cytotoxicity against human IGROV1 cells assessed as age growth inhibition at 50 uM after 48 hrs by sulforhodamine B assay; type: functional; details: IGROV-1, 48 h, read-out: GI
IGROV-1 [5] = test: Cytotoxicity against human IGROV1 cells assessed as age growth inhibition at 100 uM after 48 hrs by sulforhodamine B assay; type: functional; details: IGROV-1, 48 h, read-out: GI
SK-OV-3 [6] = test: Cytotoxicity against human SKOV3 cells assessed as age growth inhibition at 10 uM after 48 hrs by sulforhodamine B assay; type: functional; details: SK-OV-3, 48 h, read-out: GI
SK-OV-3 [7] = test: Cytotoxicity against human SKOV3 cells assessed as age growth inhibition at 50 uM after 48 hrs by sulforhodamine B assay; type: functional; details: SK-OV-3, 48 h, read-out: GI
SK-OV-3 [8] = test: Cytotoxicity against human SKOV3 cells assessed as age growth inhibition at 100 uM after 48 hrs by sulforhodamine B assay; type: functional; details: SK-OV-3, 48 h, read-out: GI
DU-145 [9] = test: Cytotoxicity against human DU145 cells assessed as age growth inhibition at 10 uM after 48 hrs by sulforhodamine B assay; type: functional; details: DU-145, 48 h, read-out: GI
DU-145 [10] = test: Cytotoxicity against human DU145 cells assessed as age growth inhibition at 50 uM after 48 hrs by sulforhodamine B assay; type: functional; details: DU-145, 48 h, read-out: GI
DU-145 [11] = test: Cytotoxicity against human DU145 cells assessed as age growth inhibition at 100 uM after 48 hrs by sulforhodamine B assay; type: functional; details: DU-145, 48 h, read-out: GI
HEp-2 [12] = test: Cytotoxicity against human HEP2 cells assessed as age growth inhibition at 10 uM after 48 hrs by sulforhodamine B assay; type: functional; details: HEp-2, 48 h, read-out: GI
HEp-2 [13] = test: Cytotoxicity against human HEP2 cells assessed as age growth inhibition at 50 uM after 48 hrs by sulforhodamine B assay; type: functional; details: HEp-2, 48 h, read-out: GI
HEp-2 [14] = test: Cytotoxicity against human HEP2 cells assessed as age growth inhibition at 100 uM after 48 hrs by sulforhodamine B assay; type: functional; details: HEp-2, 48 h, read-out: GI
SF-295 [15] = test: Cytotoxicity against human SF295 cells assessed as age growth inhibition at 10 uM after 48 hrs by sulforhodamine B assay; type: functional; details: SF-295, 48 h, read-out: GI
SF-295 [16] = test: Cytotoxicity against human SF295 cells assessed as age growth inhibition at 50 uM after 48 hrs by sulforhodamine B assay; type: functional; details: SF-295, 48 h, read-out: GI
SF-295 [17] = test: Cytotoxicity against human SF295 cells assessed as age growth inhibition at 100 uM after 48 hrs by sulforhodamine B assay; type: functional; details: SF-295, 48 h, read-out: GI
A549 [18] = test: Antiproliferative activity against human A549 cells after 48 hrs by sulforhodamine B assay; type: functional, cell-based; details: A549, 48 h
HOP-62 [19] = test: Antiproliferative activity against human HOP62 cells after 48 hrs by sulforhodamine B assay; type: functional, cell-based; details: HOP-62, 48 h
HCT-15 [20] = test: Antiproliferative activity against human HCT15 cells after 48 hrs by sulforhodamine B assay; type: functional, cell-based; details: HCT-15, 48 h
COLO 205 [21] = test: Antiproliferative activity against human COLO205 cells after 48 hrs by sulforhodamine B assay; type: functional, cell-based; details: COLO 205, 48 h
IGROV-1 [22] = test: Antiproliferative activity against human IGROV1 cells after 48 hrs by sulforhodamine B assay; type: functional, cell-based; details: IGROV-1, 48 h
SK-OV-3 [23] = test: Antiproliferative activity against human SKOV3 cells after 48 hrs by sulforhodamine B assay; type: functional, cell-based; details: SK-OV-3, 48 h
DU-145 [24] = test: Antiproliferative activity against human DU145 cells after 48 hrs by sulforhodamine B assay; type: functional, cell-based; details: DU-145, 48 h
HEp-2 [25] = test: Antiproliferative activity against human HEP2 cells after 48 hrs by sulforhodamine B assay; type: functional, cell-based; details: HEp-2, 48 h
SF-295 [26] = test: Antiproliferative activity against human SF295 cells after 48 hrs by sulforhodamine B assay; type: functional, cell-based; details: SF-295, 48 h
A549 [27] = test: Cytotoxicity against human A549 cells assessed as age growth inhibition at 10 uM after 48 hrs by sulforhodamine B assay; type: functional; details: A549, 48 h, read-out: GI
A549 [28] = test: Cytotoxicity against human A549 cells assessed as age growth inhibition at 50 uM after 48 hrs by sulforhodamine B assay; type: functional; details: A549, 48 h, read-out: GI
A549 [29] = test: Cytotoxicity against human A549 cells assessed as age growth inhibition at 100 uM after 48 hrs by sulforhodamine B assay; type: functional; details: A549, 48 h, read-out: GI
HOP-62 [30] = test: Cytotoxicity against human HOP62 cells assessed as age growth inhibition at 10 uM after 48 hrs by sulforhodamine B assay; type: functional; details: HOP-62, 48 h, read-out: GI
HOP-62 [31] = test: Cytotoxicity against human HOP62 cells assessed as age growth inhibition at 50 uM after 48 hrs by sulforhodamine B assay; type: functional; details: HOP-62, 48 h, read-out: GI
HOP-62 [32] = test: Cytotoxicity against human HOP62 cells assessed as age growth inhibition at 100 uM after 48 hrs by sulforhodamine B assay; type: functional; details: HOP-62, 48 h, read-out: GI
HCT-15 [33] = test: Cytotoxicity against human HCT15 cells assessed as age growth inhibition at 10 uM after 48 hrs by sulforhodamine B assay; type: functional; details: HCT-15, 48 h, read-out: GI
HCT-15 [34] = test: Cytotoxicity against human HCT15 cells assessed as age growth inhibition at 50 uM after 48 hrs by sulforhodamine B assay; type: functional; details: HCT-15, 48 h, read-out: GI
HCT-15 [35] = test: Cytotoxicity against human HCT15 cells assessed as age growth inhibition at 100 uM after 48 hrs by sulforhodamine B assay; type: functional; details: HCT-15, 48 h, read-out: GI
COLO 205 [36] = test: Cytotoxicity against human COLO205 cells assessed as age growth inhibition at 10 uM after 48 hrs by sulforhodamine B assay; type: functional; details: COLO 205, 48 h, read-out: GI

| Compound | inhibition of growth at 50 µM (COLO 205 [1]) [%] | inhibition of growth at 100 µM (COLO 205 [2]) [%] | inhibition of growth at 10 µM (IGROV-1 [3]) [%] | inhibition of growth at 50 µM (IGROV-1 [4]) [%] | inhibition of growth at 100 µM (IGROV-1 [5]) [%] | inhibition of growth at 10 µM (SK-OV-3 [6]) [%] | inhibition of growth at 50 µM (SK-OV-3 [7]) [%] | inhibition of growth at 100 µM (SK-OV-3 [8]) [%] | inhibition of growth at 10 µM (DU-145 [9]) [%] | inhibition of growth at 50 µM (DU-145 [10]) [%] | inhibition of growth at 100 µM (DU-145 [11]) [%] | inhibition of growth at 10 µM (HEp-2 [12]) [%] | inhibition of growth at 50 µM (HEp-2 [13]) [%] | inhibition of growth at 100 µM (HEp-2 [14]) [%] | inhibition of growth at 10 µM (SF-295 [15]) [%] | inhibition of growth at 50 µM (SF-295 [16]) [%] | inhibition of growth at 100 µM (SF-295 [17]) [%] | IC50 (A549 [18]) [µM] | IC50 (HOP-62 [19]) [µM] | IC50 (HCT-15 [20]) [µM] | further results |
| --- | --- | --- | --- | --- | --- | --- | --- | --- | --- | --- | --- | --- | --- | --- | --- | --- | --- | --- | --- | --- | --- |
| CC1(C)CCC[C@@]2(C)C1=C[C@H]1C(=O)O[C@H](c3ccc(Cl)cc3)[C@H]12 | 24 | 25 | 1 | 15 | 16 | 10 | 14 | 24 | 16 | 30 | 35 | 8 | 18 | 18 | 20 | 23 | 31 | > 100 | > 100 | > 100 | IC50 (COLO 205 [21]): > 100 µM; IC50 (IGROV-1 [22]): > 100 µM; IC50 (SK-OV-3 [23]): > 100 µM; IC50 (DU-145 [24]): > 100 µM; IC50 (HEp-2 [25]): > 100 µM; IC50 (SF-295 [26]): > 100 µM; inhibition of growth at 10 µM (A549 [27]): 10%; inhibition of growth at 50 µM (A549 [28]): 12%; inhibition of growth at 100 µM (A549 [29]): 20%; inhibition of growth at 10 µM (HOP-62 [30]): 27%; inhibition of growth at 50 µM (HOP-62 [31]): 29%; inhibition of growth at 100 µM (HOP-62 [32]): 38%; inhibition of growth at 10 µM (HCT-15 [33]): 9%; inhibition of growth at 50 µM (HCT-15 [34]): 29%; inhibition of growth at 100 µM (HCT-15 [35]): 30%; inhibition of growth at 10 µM (COLO 205 [36]): 22% |
| CC1(C)CCC[C@@]2(C)C1=C[C@H]1C(=O)O[C@H](c3ccc(F)cc3)[C@H]12 | 26 | 32 | 7 | 20 | 29 | 6 | 13 | 41 | 0 | 0 | 35 | 7 | 13 | 23 | 4 | 10 | 15 | 79.3 | > 100 | > 100 | IC50 (COLO 205 [21]): > 100 µM; IC50 (IGROV-1 [22]): > 100 µM; IC50 (SK-OV-3 [23]): > 100 µM; IC50 (DU-145 [24]): > 100 µM; IC50 (HEp-2 [25]): > 100 µM; IC50 (SF-295 [26]): > 100 µM; inhibition of growth at 10 µM (A549 [27]): 2%; inhibition of growth at 50 µM (A549 [28]): 45%; inhibition of growth at 100 µM (A549 [29]): 51%; inhibition of growth at 10 µM (HOP-62 [30]): 9%; inhibition of growth at 50 µM (HOP-62 [31]): 14%; inhibition of growth at 100 µM (HOP-62 [32]): 27%; inhibition of growth at 10 µM (HCT-15 [33]): 13%; inhibition of growth at 50 µM (HCT-15 [34]): 34%; inhibition of growth at 100 µM (HCT-15 [35]): 38%; inhibition of growth at 10 µM (COLO 205 [36]): 11% |

— ChEMBL document CHEMBL1140040, “Synthesis and cytotoxic activity of some novel polycyclic gamma-butyrolactones” (Bioorg Med Chem Lett, 2008)
